The subject of one experiment is Nicotiana benthamiana. Nature of the experiment: Test Example 5: growth promotion under low-temperature stress by hydroponics of Nicotiana benthamiana (1 ppm). The class given is in vivo. Conditions: compound at 1 ppm, 7 days at 1.5±1.0° C. low-temperature stress, then 3 days at 22° C., 5 or greater = growth promotion effect, read-out: value of a relative leaf area (Equation (1), area of green leaf). The method, then:
Test Example 5. Test for Evaluating Growth Promotion Under Low-Temperature Stress by Hydroponics of Nicotiana benthamiana
(§1) (Cultivation and Compound Treatment)
A DMSO solution, which contained one of the compounds 9, 10, 15, 16, 27 to 29, 31 to 37, 40, 44, 47, 48, 52, 55, 56, 58, 61, 63, 81, 87, 89, 92, 95, 98, 100, 102, 105, 108, 109, 111, 113, and 115 of the present invention at a concentration of 1,000 ppm, was prepared. The DMSO solution of the compound of the present invention was added at a volume ratio of 1/1,000 to the Murashige-Scoog medium of a ½-fold concentration (a medium containing 2.3 g of mixed salts (manufactured by Wako Pure Chemical Industries, Ltd.), 200 mg of Myo-inositol (manufactured by Sigme-Aldrich Co. LLC.), 2 mg of niconitic acid (manufactured by Wako Pure Chemical. Industries, Ltd.), 2 mg of pyridoxine hydrochloride (manufactured by Wako Pure Chemical Industries, Ltd.), 20 mg of thiamine hydrochloride (manufactured by Wako Pure Chemical Industries, Ltd.), 20 g of sucrose (manufactured by Wako Pure Chemical Industries, Ltd.), and 1 g of MES (manufactured by DOJINDO LABORATORIES) respectively per 1 L of water and having pH adjusted to 5.8), thereby preparing a medium containing the compound of the present invention at a concentration of 1 ppm.
(§2) Seeds of Nicotiana benthamiana were seeded in the 5 μL of the medium and cultured overnight at 22° C. Thereafter, 45 μL of the medium containing the compound of the present invention at a concentration of 1 ppm was added thereto, and the seeds are cultured for 7 days at 22° C. under the conditions of an illuminance of 4,000 lux, and a day length of 16 hours, and the seedlings raised from the Nicotiana benthamiana were treated with the compound. Moreover, instead of the above medium a test plot, which was obtained by performing the same treatment by using a medium prepared by adding DMSO to the Murashige⋅Scoog medium of ½-fold concentration at a volume ratio of 1/1,000, was used as a control plot not treated with the compound.
(§3) (Low-Temperature Stress Treatment)
(§4) The seedlings of the Nicotiana benthamiana treated with the compound were subjected to low-temperature treatment by being cultured for 7 days at 1.5±1.0° C., under the conditions of an illuminance of 2,000 lux, and a day length of 16 hours.
The seedlings of the Nicotiana benthamiana having undergone the low-temperature stress treatment were cultured for 3 days at 22° C. under the conditions of an illuminance of 4,000 lux, and a day length of 16 hours. Thereafter, the area of green leaf was quantified by Scanalyzer HTS (manufactured by LemnaTec GmbH). Moreover, the value of the control plot not treated with the compound that had not yet been subjected to the low-temperature stress treatment was measured in the same manner. A value of a relative leaf area was calculated based on the following equation (1), and if the relative value of leaf area was 5 or greater, the compound was evaluated to have a growth promotion effect. As a result of the evaluation, it was confirmed that when the plant was treated with one of the compounds 9, 10, 15, 16, 27 to 29, 31 to 37, 40, 44, 47, 48, 52, 55, 56, 58, 61, 63, 81, 87, 89, 92, 95, 98, 100, 102, 105, 108, 109, 111, 113, and 115 of the present invention at 1 ppm, the value of a relative leaf area was 5 or greater, compared to the area of green leaf of the control plot not treated with compound. Accordingly, it was confirmed that the treatment using the compound of the present invention improve a growth promotion effect. Relative leaf area=100*(a green area of a plot treated with the compound of the present invention minus(−) a green area of a plot not treated with the compound of the present invention)/(a green area of a control plot not treated with the compound of the present invention that had not yet been subjected to low-temperature stress treatment minus(−) a green area of a control plot not treated with the compound of the present invention) Equation (1): […]
Turning to `O=C(O)c1sc2ccccc2c1C(=O)O` [Present compound 55, benzo[b]thiophene-2,3-dicarboxylic acid], the relative leaf area at 1 ppm is no less than 5%.

In the next experiment the test system is Nicotiana benthamiana. The experiment can be described thus: Test Example 6: growth promotion under low-temperature stress by hydroponics of Nicotiana benthamiana (0.1 ppm). Conditions: compound at 0.1 ppm, 7 days at 1.5±1.0° C. low-temperature stress, then 3 days at 22° C., 5 or greater = growth promotion effect, read-out: value of a relative leaf area (Equation (1), area of green leaf). The class given is in vivo. How it is done: Test Example 6. Test for Evaluating Growth Promotion Under Low-Temperature Stress by Hydroponics of Nicotiana benthamiana
as §1
A DMSO solution, which contained one of the compounds 2, 3, 7, 11 to 13, 20, 23, 24, 30, 38, 39, 41 to 43, 46, 50, 64, 68, 80, 82, 88, 93, 94, 96, 104, 107, and 112 of the present invention at a concentration of […], was prepared. The DMSO solution of the compound of the present invention was added at a volume ratio of 1/1,000 to the Murashige⋅Scoog medium of a ½-fold concentration (a medium containing 2.3 g of mixed salts (manufactured by Wako Pure Chemical Industries, Ltd.), 200 mg of Myo-inositol (manufactured by Sigme-Aldrich Co. LLC.), 2 mg of niconitic acid (manufactured by Wako Pure Chemical Industries, Ltd.), 2 mg of pyridoxine hydrochloride (manufactured by Wako Pure Chemical Industries, Ltd.), 20 mg of thiamine hydrochloride (manufactured by Wako Pure Chemical Industries, Ltd.), 20 g of sucrose (manufactured by Wako Pure Chemical Industries, Ltd.), and 1 g of […] (manufactured by DOJINDO LABORATORIES) respectively per 1 L of water and having pH adjusted to 5.8), thereby preparing a medium containing the compound of the present invention at a concentration of 0.1 ppm.
as §2, with “concentration of 0.1 ppm was” for “concentration of 1 ppm was”, “to the Murashige′Scoog medium of” for “to the Murashige⋅Scoog medium of”
as §3, §4
The seedlings of the Nicotiana benthamiana having undergone the low-temperature stress treatment were cultured for 3 days at 22° C., under the conditions of an illuminance of 4,000 lux, and a day length of 16 hours. Thereafter, the area of green leaf was quantified by Scanalyzer HTS (manufactured by LemnaTec GmbH). Moreover, the value of the control plot not treated with the compound that had not yet been subjected to the low-temperature stress treatment was measured in the same manner. A value of a relative leaf area was calculated based on the following equation (1), and if the relative value of leaf area was 5 or greater, the compound was evaluated to have a growth promotion effect. As a result of the evaluation, it was confirmed that when the plant was treated with one of the compounds 2, 3, 7, 11 to 13, 20, 23, 24, 30, 38, 39, 41 to 43, 46, 50, 64, 68, 80, 82, 88, 93, 94, 96, 104, 107, and 112 of the present invention at 0.1 ppm, the value of a relative leaf area was 5 or greater, compared to the area of green leaf of the control plot not treated with compound. Accordingly, it was confirmed that the treatment using the compound of the present invention improve a growth promotion effect. Relative leaf area=100*(a green area of a plot treated with the compound of the present invention minus(−) a green area of a plot not treated with the compound of the present invention)/(a green area of a control plot not treated with the compound of the present invention that had not yet been subjected to low-temperature stress treatment minus(−) green area of a control plot not treated with the compound of the present invention) Equation (1): […]
In the case of `C=Cc1ccc2cc(C(=O)O)sc2c1` [Present compound 30, 6-vinylbenzo[b]thiophene-2-carboxylic acid], the relative green leaf area at 0.1 ppm was no less than 5%.

Turning to `O=C(O)c1cc2cc(-c3cccc(Cl)c3)ccc2s1` [Present compound 38, 5-(3-chlorophenyl)benzo[b]thiophene-2-carboxylic acid], the relative green leaf area at 0.1 ppm was no less than 5%. Consider `O=C(O)c1cc2cc(-c3ccc(Cl)cc3)ccc2s1` [Present compound 39, 5-(4-chlorophenyl)benzo[b]thiophene-2-carboxylic acid], for which the relative green leaf area at 0.1 ppm is no less than 5%. Same read-out and setting: as for `O=C(O)c1cc2cc(-c3ccncc3)ccc2s1` [Present compound 46, 5-(4-pyridyl)benzo[b]thiophene-2-carboxylic acid], the figure is no less than 5%; as for `O=C(O)c1cc2cc(-c3cccs3)ccc2s1` [Present compound 50, 5-(2-thienyl)benzo[b]thiophene-2-carboxylic acid], no less than 5%. `CN(C)c1cccc2sc(C(=O)O)cc12` [Present compound 64, 4-(dimethylamino)benzo[b]thiophene-2-carboxylic acid]: the relative green leaf area at 0.1 ppm was no less than 5%. Same read-out and setting: under `O=C(O)c1sc2ccccc2c1O` [Present compound 80, 3-hydroxybenzo[b]thiophene-2-carboxylic acid] stands no less than 5%; under `COc1ccc2sc(C(=O)O)cc2c1` [Present compound 82, 5-methoxybenzo[b]thiophene-2-carboxylic acid], no less than 5%; under `O=C(O)c1sc2ccccc2c1OCc1ccccc1` [Present compound 88, 3-benzyloxybenzo[b]thiophene-2-carboxylic acid], no less than 5%. On the same count and under the same terms, as for `Cc1ccccc1Oc1cccc2cc(C(=O)O)sc12` [Present compound 94, 7-(2-methylphenoxy)benzo[b]thiophene-2-carboxylic acid], the figure is no less than 5%. Take `O=C(O)c1cc2cccc(Oc3ccc(OC(F)(F)F)cc3)c2s1` [Present compound 96]: the relative green leaf area at 0.1 ppm was no less than 5%. On the same count and under the same terms, under `O=C(O)c1cc2cc(C(F)(F)F)cc(Cl)c2s1` [Present compound 104, 7-chloro-5-trifluoromethylbenzo[b]thiophene-2-carboxylic acid] stands no less than 5%; under `O=C(O)c1sc2ccc(C(F)(F)F)cc2c1C(F)(F)F` [Present compound 107, 3,5-bis(trifluoromethyl)benzo[b]thiophene-2-carboxylic acid], no less than 5%; under `COc1c(C(=O)O)sc2ccc(C(F)(F)F)cc12` [Present compound 112, 3-methoxy-5-trifluoromethylbenzo[b]thiophene-2-carboxylic acid], no less than 5%.

The test system of another experiment is Corn (Variety: Pioneer 31P41). Nature of the experiment: Test Example 8: growth promotion under low-temperature stress by corn seed treatment. The class given is in vivo. Conditions: corn seed treatment: compound 21 0.5 g, compound 55 0.5 g, 5 g or 50 g per 100 kg corn seeds; 4 days at 2.5±1° C., then 4 days at 27° C. How it is done:
Test Example 8. Test for Evaluating Growth Promotion Under Low-Temperature Stress by Corn Seed Treatment
Corn (Variety: Pioneer 31P41 (Manufactured by Pioneer Hi-Bred Japan)
A blank slurry solution containing 10% (V/V) color coat red (Becker Underwood, Inc.), 10% (V/V) CF-Clear (Becker Underwood, Inc.), and 1.66% Maxim4FS (Syngenta) was prepared. The compound 21 of the present invention was dissolved in the blank slurry such that 0.5 g of the compound was used for treatment per 100 kg corn seeds, and the compound 55 of the present invention was dissolved in the blank slurry such that 0.5 g, 5 g or 50 g of the compound was used for treatment per 100 kg corn seeds respectively, thereby preparing a slurry solution.
Zero point three five (0.35) ml of the slurry solution per 14.4 g of the seeds was put into a 50 ml centrifugal settling tube (manufactured by Becton, Dickinson and Company, Japan), and the slurry solution was stirred until it dries, thereby coating the seeds. Moreover, the seeds coated with the blank slurry were used as seeds for an untreated control plot. […]
After low-temperature stress treatment was performed, the seeds were cultured for 4 days at 27° C., under the conditions of an illuminance of 5,000 lux, and a day length of 16 hours. Thereafter, a fresh weight of the aerial part in plant was measured, and an average weight of each individual was determined. […]
In the case of `Cc1ccc2sc(C(=O)O)cc2c1` [Present compound 21], the “fresh weight of the aerial part compared with the untreated control plot” value is “larger”. For the compound `O=C(O)c1sc2ccccc2c1C(=O)O` [Present compound 55, benzo[b]thiophene-2,3-dicarboxylic acid], the “fresh weight of the aerial part compared with the untreated control plot” value is reported as “larger”.

The values above are taken from US9955689B2, “Method for promoting plant growth” (SUMITOMO CHEMICAL COMPANY, LIMITED, priority 2012, dated 2018).
